# From patent publication US11672762B2, “Onapristone extended-release compositions and methods” (Context Biopharma Inc., priority 2014, dated 2023)
# Experiments:
# [1] = human, in vivo
# Text: PK results for onapristone are available for 52 patients from the a first study (ARN-AR18-CT-101) (Table 1). Variability for onapristone PK is moderate and greater for the IR versus the ER formulation. Onapristone Cmax and AUC values for the ER form are proportional to administered dose (FIGS. 1 and 2). Based on observed mean AUC values, oral bioavailability for the ER versus the IR formulation is approximately 50% (FIG. 24). A later Tmax value for the ER form results in somewhat lower dose-corrected Cmax values for the ER form compared to the IR form. Steady state is attained before day 8 with a mean t % of 7.5 hrs.
# Table 1 compares descriptive statistics for the primary onapristone pharmacokinetic exposure parameters following single oral doses from 10 to 50 mg of extended-release onapristone compared to that from 100 mg immediate-release onapristone (Study ARN-AR18-CT-101). […]
# Blood samples were collected at 0, 1, 2, 3, 4, 6, 8, 12 (before next BID dose), and 24 (before next dose—for 100 mg IR only) hours post-ONA, as well as hour 0 on days 8, 29 and 57 (just before drug intake). Plasma concentrations of ONA, mono-demethylated onapristone (M1) and other metabolites in plasma and urine were analyzed with a validated ultra-performance liquid chromatography with tandem mass spectrometry detection (UPLC-MS/MS) assay. […]
# [2] = original immediate release (IR) formulation; cited from earlier work
# [3] = system: gonadotrophin (LH and FSH) secretion; settings: immediate release doses of 1 and 10 mg; cited from earlier work
structure (smiles),measurement,setting,value
"CN(C)c1ccc([C@H]2C[C@]3(C)[C@@H](CC[C@]3(O)CCCO)[C@@H]3CCC4=CC(=O)CCC4=C32)cc1 [onapristone, (8S,11R,13R,14S,17S)-11-[4-(dimethylamino)phenyl]-17-hydroxy-17-(3-hydroxypropyl)-13-methyl-1,2,6,7,8,11,12,14,15,16-decahydrocyclopenta[a]phenanthren-3-one]",Steady state attained,[1],< 8 days
same,mean t %,[1],7.5 h
same,tolerability,[2],well-tolerated with the exception of abnormalities in liver function tests
same,"effect on gonadotrophin (LH, FSH) secretion",[3],dose-dependent effect of onapristone on suppression of gonadotrophin
